Article PMC5433425 (PeerJ, 2017)
Where “and” joins values, the source holds several entries; their conditions need not be identical. Equal values may be shown once. Read-outs that look alike come from different tables or passages of the source.

Columns and labels:
[1] = test system: E. coli AG100tet (AcrAB overexpressing); test: MIC, broth microdilution; format: cell-based, Escherichia coli; details: Escherichia coli
E. coli AG100tet = test: EtBr efflux by real-time fluorometry; details: 80 µM
E. coli AG100A = test: microbe, parasite or virus in culture; format: cell-based, Escherichia coli; details: for MIC: Escherichia coli, AG100A
Description: The minimum inhibitory concentrations (MICs) were determined using the broth microdilution method according to the CLSI guidelines ([Clinical and Laboratory Standards Institute, 2014]). […] Two-fold serial dilutions of the compounds were made to achieve the following concentrations: 320 µM–40 µM. The MICs were determined as the lowest concentration at which no visible growth was observed after 18 h of incubation at 37 °C. The assays were performed in triplicate and the MIC value was given as result of at least two concordant values.

E. coli AG100 [2] = test: EtBr efflux by real-time fluorometry; details: AG100, AG100A and AG100tet (Fig. 2); 80 μM (20 μM for AG100A); glucose, 37 °C
Description: Control tubes with only cells and cells with and without 0.4% glucose were included. The fluorescence was measured in a Rotor-Gene 3000 and the data was acquired every 30 s for 30 min at 37 °C. The efflux activity was quantified by comparing the fluorescence data obtained under conditions that promote efflux (presence of glucose and absence of efflux inhibitor) with the data from the control in which the bacteria are under conditions of no efflux (presence of an inhibitor and no energy source).

E. coli AG100 [3] = test: Membrane potential assay (BacLight, DiOC2(3)); details: 80 µM

## CN(C)CCCN1c2ccccc2Sc2ccc(Cl)cc21 [CPZ, chlorpromazine]
[1]
  MIC: 280 µg/mL and 788 µM
E. coli AG100tet; cycle 1, + glucose
  Fluorescence raw data, Channel Cycling A.530/585hp: 6.9729
E. coli AG100tet; cycle 1, without glucose
  Fluorescence raw data, Channel Cycling A.530/585hp: 6.962
E. coli AG100tet; cycle 2, + glucose
  Fluorescence raw data, Channel Cycling A.530/585hp: 6.777
E. coli AG100tet; cycle 2, without glucose
  Fluorescence raw data, Channel Cycling A.530/585hp: 6.801
E. coli AG100tet; cycle 3, + glucose
  Fluorescence raw data, Channel Cycling A.530/585hp: 6.512
E. coli AG100tet; cycle 3, without glucose
  Fluorescence raw data, Channel Cycling A.530/585hp: 6.754
E. coli AG100tet; cycle 4, without glucose
  Fluorescence raw data, Channel Cycling A.530/585hp: 6.877
E. coli AG100tet; cycle 5, without glucose
  Fluorescence raw data, Channel Cycling A.530/585hp: 7.026
E. coli AG100tet; cycle 6, without glucose
  Fluorescence raw data, Channel Cycling A.530/585hp: 7.1507
E. coli AG100tet; cycle 7, without glucose
  Fluorescence raw data, Channel Cycling A.530/585hp: 7.108
E. coli AG100tet; cycle 8, without glucose
  Fluorescence raw data, Channel Cycling A.530/585hp: 7.075
E. coli AG100tet; cycle 9, + glucose
  Fluorescence raw data, Channel Cycling A.530/585hp: 6.252
E. coli AG100tet; cycle 9, without glucose
  Fluorescence raw data, Channel Cycling A.530/585hp: 7.246
E. coli AG100tet; cycle 10, + glucose
  Fluorescence raw data, Channel Cycling A.530/585hp: 6.3883
E. coli AG100tet; cycle 10, without glucose
  Fluorescence raw data, Channel Cycling A.530/585hp: 7.315
E. coli AG100tet; cycle 11, + glucose
  Fluorescence raw data, Channel Cycling A.530/585hp: 6.371
E. coli AG100tet; cycle 11, without glucose
  Fluorescence raw data, Channel Cycling A.530/585hp: 7.397
E. coli AG100tet; cycle 12, + glucose
  Fluorescence raw data, Channel Cycling A.530/585hp: 6.405
E. coli AG100tet; cycle 12, without glucose
  Fluorescence raw data, Channel Cycling A.530/585hp: 7.4437
E. coli AG100tet; cycle 13, + glucose
  Fluorescence raw data, Channel Cycling A.530/585hp: 6.558
E. coli AG100tet; cycle 13, without glucose
  Fluorescence raw data, Channel Cycling A.530/585hp: 7.742
E. coli AG100tet; cycle 14, + glucose
  Fluorescence raw data, Channel Cycling A.530/585hp: 6.536
E. coli AG100tet; cycle 14, without glucose
  Fluorescence raw data, Channel Cycling A.530/585hp: 7.795
E. coli AG100tet; cycle 15, + glucose
  Fluorescence raw data, Channel Cycling A.530/585hp: 6.4669
E. coli AG100tet; cycle 15, without glucose
  Fluorescence raw data, Channel Cycling A.530/585hp: 7.899
E. coli AG100tet; cycle 16, + glucose
  Fluorescence raw data, Channel Cycling A.530/585hp: 6.613
E. coli AG100tet; cycle 16, without glucose
  Fluorescence raw data, Channel Cycling A.530/585hp: 7.989
E. coli AG100tet; cycle 17, + glucose
  Fluorescence raw data, Channel Cycling A.530/585hp: 6.675
E. coli AG100tet; cycle 17, without glucose
  Fluorescence raw data, Channel Cycling A.530/585hp: 8.041
E. coli AG100tet; cycle 18, + glucose
  Fluorescence raw data, Channel Cycling A.530/585hp: 6.686
E. coli AG100tet; cycle 18, without glucose
  Fluorescence raw data, Channel Cycling A.530/585hp: 8.027
E. coli AG100tet; cycle 19, + glucose
  Fluorescence raw data, Channel Cycling A.530/585hp: 6.605
E. coli AG100tet; cycle 19, without glucose
  Fluorescence raw data, Channel Cycling A.530/585hp: 8.219
E. coli AG100tet; cycle 20, + glucose
  Fluorescence raw data, Channel Cycling A.530/585hp: 6.711
E. coli AG100tet; cycle 20, without glucose
  Fluorescence raw data, Channel Cycling A.530/585hp: 8.174
E. coli AG100tet; cycle 21, + glucose
  Fluorescence raw data, Channel Cycling A.530/585hp: 6.762
E. coli AG100tet; cycle 21, without glucose
  Fluorescence raw data, Channel Cycling A.530/585hp: 8.255
E. coli AG100tet; cycle 22, + glucose
  Fluorescence raw data, Channel Cycling A.530/585hp: 6.7278
E. coli AG100tet; cycle 22, without glucose
  Fluorescence raw data, Channel Cycling A.530/585hp: 8.507
E. coli AG100tet; cycle 23, + glucose
  Fluorescence raw data, Channel Cycling A.530/585hp: 6.745
E. coli AG100tet; cycle 23, without glucose
  Fluorescence raw data, Channel Cycling A.530/585hp: 8.467
E. coli AG100tet; cycle 24, + glucose
  Fluorescence raw data, Channel Cycling A.530/585hp: 6.771
E. coli AG100tet; cycle 24, without glucose
  Fluorescence raw data, Channel Cycling A.530/585hp: 8.6
E. coli AG100tet; cycle 25, + glucose
  Fluorescence raw data, Channel Cycling A.530/585hp: 6.796
E. coli AG100tet; cycle 25, without glucose
  Fluorescence raw data, Channel Cycling A.530/585hp: 8.667
E. coli AG100tet; cycle 26, + glucose
  Fluorescence raw data, Channel Cycling A.530/585hp: 6.92
E. coli AG100tet; cycle 26, without glucose
  Fluorescence raw data, Channel Cycling A.530/585hp: 8.734
E. coli AG100tet; cycle 27, + glucose
  Fluorescence raw data, Channel Cycling A.530/585hp: 6.8217
E. coli AG100tet; cycle 27, without glucose
  Fluorescence raw data, Channel Cycling A.530/585hp: 8.768
E. coli AG100tet; cycle 28, + glucose
  Fluorescence raw data, Channel Cycling A.530/585hp: 6.925
E. coli AG100tet; cycle 28, without glucose
  Fluorescence raw data, Channel Cycling A.530/585hp: 8.988
E. coli AG100tet; cycle 29, + glucose
  Fluorescence raw data, Channel Cycling A.530/585hp: 6.828
E. coli AG100tet; cycle 29, without glucose
  Fluorescence raw data, Channel Cycling A.530/585hp: 9.111
E. coli AG100tet; cycle 30, + glucose
  Fluorescence raw data, Channel Cycling A.530/585hp: 6.9
E. coli AG100tet; cycle 30, without glucose
  Fluorescence raw data, Channel Cycling A.530/585hp: 8.957
E. coli AG100tet; cycle 31, + glucose
  Fluorescence raw data, Channel Cycling A.530/585hp: 6.782
E. coli AG100tet; cycle 31, without glucose
  Fluorescence raw data, Channel Cycling A.530/585hp: 9.091
E. coli AG100tet; cycle 32, + glucose
  Fluorescence raw data, Channel Cycling A.530/585hp: 6.729
E. coli AG100tet; cycle 32, without glucose
  Fluorescence raw data, Channel Cycling A.530/585hp: 9.229
E. coli AG100tet; cycle 33, + glucose
  Fluorescence raw data, Channel Cycling A.530/585hp: 6.907
E. coli AG100tet; cycle 33, without glucose
  Fluorescence raw data, Channel Cycling A.530/585hp: 9.3007
E. coli AG100tet; cycle 34, + glucose
  Fluorescence raw data, Channel Cycling A.530/585hp: 6.901
E. coli AG100tet; cycle 34, without glucose
  Fluorescence raw data, Channel Cycling A.530/585hp: 9.345
E. coli AG100tet; cycle 35, + glucose
  Fluorescence raw data, Channel Cycling A.530/585hp: 6.783
E. coli AG100tet; cycle 35, without glucose
  Fluorescence raw data, Channel Cycling A.530/585hp: 9.405
E. coli AG100tet; cycle 36, + glucose
  Fluorescence raw data, Channel Cycling A.530/585hp: 6.785
E. coli AG100tet; cycle 36, without glucose
  Fluorescence raw data, Channel Cycling A.530/585hp: 9.367
E. coli AG100tet; cycle 37, + glucose
  Fluorescence raw data, Channel Cycling A.530/585hp: 6.975
E. coli AG100tet; cycle 37, without glucose
  Fluorescence raw data, Channel Cycling A.530/585hp: 9.488
E. coli AG100tet; cycle 38, + glucose
  Fluorescence raw data, Channel Cycling A.530/585hp: 6.976
E. coli AG100tet; cycle 38, without glucose
  Fluorescence raw data, Channel Cycling A.530/585hp: 9.581
E. coli AG100tet; cycle 39, + glucose
  Fluorescence raw data, Channel Cycling A.530/585hp: 6.681
E. coli AG100tet; cycle 39, without glucose
  Fluorescence raw data, Channel Cycling A.530/585hp: 9.571
E. coli AG100tet; cycle 40, + glucose
  Fluorescence raw data, Channel Cycling A.530/585hp: 6.952
E. coli AG100tet; cycle 40, without glucose
  Fluorescence raw data, Channel Cycling A.530/585hp: 9.707
E. coli AG100tet; cycle 41, + glucose
  Fluorescence raw data, Channel Cycling A.530/585hp: 6.766
E. coli AG100tet; cycle 41, without glucose
  Fluorescence raw data, Channel Cycling A.530/585hp: 9.731
E. coli AG100tet; cycle 42, + glucose
  Fluorescence raw data, Channel Cycling A.530/585hp: 6.916
E. coli AG100tet; cycle 42, without glucose
  Fluorescence raw data, Channel Cycling A.530/585hp: 9.718
E. coli AG100tet; cycle 43, + glucose
  Fluorescence raw data, Channel Cycling A.530/585hp: 6.844
E. coli AG100tet; cycle 43, without glucose
  Fluorescence raw data, Channel Cycling A.530/585hp: 9.8689
E. coli AG100tet; cycle 44, + glucose
  Fluorescence raw data, Channel Cycling A.530/585hp: 6.82
E. coli AG100tet; cycle 44, without glucose
  Fluorescence raw data, Channel Cycling A.530/585hp: 9.768
E. coli AG100tet; cycle 45, without glucose
  Fluorescence raw data, Channel Cycling A.530/585hp: 9.807
E. coli AG100tet; cycle 46, without glucose
  Fluorescence raw data, Channel Cycling A.530/585hp: 9.797
E. coli AG100tet; cycle 47, without glucose
  Fluorescence raw data, Channel Cycling A.530/585hp: 9.663
E. coli AG100tet; cycle 48, without glucose
  Fluorescence raw data, Channel Cycling A.530/585hp: 9.794
E. coli AG100tet; cycle 49, without glucose
  Fluorescence raw data, Channel Cycling A.530/585hp: 9.745
E. coli AG100tet; cycle 50, without glucose
  Fluorescence raw data, Channel Cycling A.530/585hp: 9.769
E. coli AG100tet; cycle 51, without glucose
  Fluorescence raw data, Channel Cycling A.530/585hp: 9.982
E. coli AG100tet; cycle 52, without glucose
  Fluorescence raw data, Channel Cycling A.530/585hp: 9.725
E. coli AG100tet; cycle 53, without glucose
  Fluorescence raw data, Channel Cycling A.530/585hp: 9.758
E. coli AG100tet; cycle 54, without glucose
  Fluorescence raw data, Channel Cycling A.530/585hp: 9.768
E. coli AG100tet; cycle 55, without glucose
  Fluorescence raw data, Channel Cycling A.530/585hp: 9.755
E. coli AG100tet; cycle 56, without glucose
  Fluorescence raw data, Channel Cycling A.530/585hp: 9.766
E. coli AG100tet; cycle 57, without glucose
  Fluorescence raw data, Channel Cycling A.530/585hp: 9.676
E. coli AG100tet; cycle 58, without glucose
  Fluorescence raw data, Channel Cycling A.530/585hp: 9.567
E. coli AG100tet; cycle 59, without glucose
  Fluorescence raw data, Channel Cycling A.530/585hp: 9.679
E. coli AG100tet; cycle 60, without glucose
  Fluorescence raw data, Channel Cycling A.530/585hp: 9.626
E. coli AG100tet; cycle 61, without glucose
  Fluorescence raw data, Channel Cycling A.530/585hp: 9.5963
E. coli AG100A; AG100A (pump-deficient strain)
  reduction in TET MIC: 4 fold
E. coli AG100A; read-out: MIC of EtBr in presence of the efflux inhibitor
  MIC: 0.39 µg/mL
E. coli AG100A; read-out: MIC of OFX in presence of the efflux inhibitor
  MIC: 0.015 µg/mL
E. coli AG100A; read-out: MIC of OXA in presence of the efflux inhibitor
  MIC: 2 µg/mL
E. coli AG100A; read-out: MIC of TET in presence of the efflux inhibitor
  MIC: 0.125 µg/mL
E. coli AG100 [2]
  inhibition of EtBr efflux: inhibited
E. coli AG100 [3]
  membrane depolarization: similarly to that caused by PQQ4R
